In PubChem BioAssay AID256 (DTP/NCI, 2004):
Several values for one entry are separate records, joined by “and”; a condition that tells them apart may be missing. Equal values may be shown once. Inconclusive results and toxic doses are left out. How the source made its calls: active means survival T/C of 150% or more; inactive means T/C below 125% in these data.

System: CD2F1 mice, L1210 leukemia ip, survival T/C
Assay: NCI In Vivo Anticancer Drug Screen. Data for tumor model L1210 Leukemia (intraperitoneal) in CD2F1 (CDF1) mice
Settings: higher = longer survival
Summary of the method: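 Tumor-bearing mice (transplanted tumor) were split into treated and vehicle control groups, and the measured endpoint of each treated group was divided by that of its vehicle controls.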

[1] = endpoint: mean survival time, dose: 100.0 mg/kg/injection, schedule: Q01DX009 (ip), vehicle: saline with Tween-80
[2] = endpoint: mean survival time, dose: 100.0 mg/kg/injection, schedule: Q04DX002 (ip), vehicle: saline with Tween-80
[3] = endpoint: mean survival time, dose: 200.0 mg/kg/injection, schedule: Q04DX002 (ip), vehicle: saline with Tween-80
[4] = endpoint: mean survival time, dose: 400.0 mg/kg/injection, schedule: Q04DX002 (ip), vehicle: saline with Tween-80
[5] = endpoint: mean survival time, dose: 50.0 mg/kg/injection, schedule: Q01DX009 (ip), vehicle: saline with Tween-80
[6] = endpoint: mean survival time, dose: 200.0 mg/kg/injection, schedule: Q01DX009 (ip), vehicle: saline with Tween-80
[7] = endpoint: mean survival time, dose: 12.5 mg/kg/injection, schedule: Q01DX009 (ip), vehicle: saline with Tween-80
[8] = endpoint: mean survival time, dose: 25.0 mg/kg/injection, schedule: Q04DX003 (ip), vehicle: saline with Tween-80
[9] = endpoint: mean survival time, dose: 50.0 mg/kg/injection, schedule: Q04DX002 (ip), vehicle: saline with Tween-80

Measured: T/C

C[N+](C)(Cc1ccc(F)cc1)C1c2ccccc2-c2ccccc21
inactive: endpoint: mean survival time, dose: 1.56 mg/kg/injection, schedule: Q04DX003 (ip), vehicle: saline 97 % of control | endpoint: mean survival time, dose: 3.13 mg/kg/injection, schedule: Q04DX003 (ip), vehicle: saline 97 % of control | endpoint: mean survival time, dose: 6.25 mg/kg/injection, schedule: Q04DX003 (ip), vehicle: saline 98 % of control

CCCCCCCCCCCCCCCC(=O)Oc1ccc(/C(CC)=C(/CC)c2ccc(OC(=O)CCCCCCCCCCCCCCC)cc2)cc1
inactive: [1] 91 % of control

O=C(O)Cc1ccc(O)c(O)c1.[Pt].c1ccc([PH+](c2ccccc2)c2ccccc2)cc1.c1ccc([PH+](c2ccccc2)c2ccccc2)cc1
inactive: endpoint: median survival time, dose: 10.0 mg/kg/injection, schedule: Q04DX003 (ip), vehicle: saline with Tween-80 103 % of control | endpoint: median survival time, dose: 20.0 mg/kg/injection, schedule: Q04DX003 (ip), vehicle: saline with Tween-80 95 % of control | endpoint: median survival time, dose: 40.0 mg/kg/injection, schedule: Q04DX003 (ip), vehicle: saline with Tween-80 101 % of control | endpoint: median survival time, dose: 50.0 mg/kg/injection, schedule: Q04DX003 (ip), vehicle: saline with Tween-80 94 % of control | endpoint: median survival time, dose: 80.0 mg/kg/injection, schedule: Q04DX003 (ip), vehicle: saline with Tween-80 94 % of control | endpoint: median survival time, dose: 100.0 mg/kg/injection, schedule: Q04DX003 (ip), vehicle: saline with Tween-80 94 % of control | endpoint: median survival time, dose: 200.0 mg/kg/injection, schedule: Q04DX003 (ip), vehicle: saline with Tween-80 97 % of control | endpoint: median survival time, dose: 400.0 mg/kg/injection, schedule: Q04DX003 (ip), vehicle: saline with Tween-80 89 % of control

COCCN1CCC(C)(CO)C1 (stereo unspecified)
inactive: endpoint: mean survival time, dose: 100.0 mg/kg/injection, schedule: Q01DX009 (ip), vehicle: saline 94 % of control | endpoint: mean survival time, dose: 200.0 mg/kg/injection, schedule: Q01DX009 (ip), vehicle: saline 94 % of control | endpoint: mean survival time, dose: 400.0 mg/kg/injection, schedule: Q01DX009 (ip), vehicle: saline 100 % of control

CCC1CCCC[N-]1.CCC1CCCC[N-]1.[Cl][Pt+2][Cl] (stereo unspecified)
inactive: endpoint: mean survival time, dose: 18.8 mg/kg/injection, schedule: Q04DX003 (ip), vehicle: saline with Tween-80 106 % of control | endpoint: mean survival time, dose: 37.5 mg/kg/injection, schedule: Q04DX003 (ip), vehicle: saline with Tween-80 100 % of control | endpoint: mean survival time, dose: 75.0 mg/kg/injection, schedule: Q04DX003 (ip), vehicle: saline with Tween-80 91 % of control | endpoint: mean survival time, dose: 150.0 mg/kg/injection, schedule: Q04DX003 (ip), vehicle: saline with Tween-80 91 % of control | endpoint: mean survival time, dose: 300.0 mg/kg/injection, schedule: Q04DX003 (ip), vehicle: saline with Tween-80 88 % of control

CC1=CC(=O)C2C(C)(C)CCCC2(C)C1(O)CCc1ccoc1 (stereo unspecified)
inactive: [2] 110 % of control | [3] 103 % of control | [4] 107 % of control

CCCCCCCCCCCC[n+]1c(C)cc(N)c2ccccc21
inactive: endpoint: mean survival time, dose: 1.25 mg/kg/injection, schedule: Q01DX001 (ip), vehicle: other 103 % of control | endpoint: mean survival time, dose: 5.0 mg/kg/injection, schedule: Q01DX001 (ip), vehicle: other 101 % of control

COC(=O)/C=C/CNC(C)C
inactive: endpoint: mean survival time, dose: 12.5 mg/kg/injection, schedule: Q01DX009 (ip), vehicle: water 93 % of control | endpoint: mean survival time, dose: 25.0 mg/kg/injection, schedule: Q01DX009 (ip), vehicle: water 95 % of control | endpoint: mean survival time, dose: 50.0 mg/kg/injection, schedule: Q01DX009 (ip), vehicle: water 96 % of control | endpoint: mean survival time, dose: 100.0 mg/kg/injection, schedule: Q01DX009 (ip), vehicle: water 96 % of control | endpoint: mean survival time, dose: 200.0 mg/kg/injection, schedule: Q01DX009 (ip), vehicle: water 101 % of control

O=C(Cl)c1ccc([N+](=O)[O-])cc1
inactive: [5] 96 % of control | [1] 101 % of control | [6] 104 % of control

O=C(Sc1ccc([N+](=O)[O-])cc1)C(=O)Sc1ccc([N+](=O)[O-])cc1
inactive: [7] 91 % of control | [5] 98 % of control

C/C(=N/Nc1ccc([N+](=O)[O-])cc1[N+](=O)[O-])c1ccccc1
inactive: [1] 91 % of control | [6] 97 % of control | endpoint: mean survival time, dose: 400.0 mg/kg/injection, schedule: Q01DX009 (ip), vehicle: saline with Tween-80 100 % of control

CCOC(=O)c1ccc(NC(=O)Nc2cc(Cl)c(Cl)cc2C)cc1
inactive: endpoint: mean survival time, dose: 3.13 mg/kg/injection, schedule: Q01DX001 (ip), vehicle: saline with Tween-80 93 % of control | endpoint: mean survival time, dose: 3.13 mg/kg/injection, schedule: Q04DX003 (ip), vehicle: saline with Tween-80 90 % of control | endpoint: mean survival time, dose: 6.25 mg/kg/injection, schedule: Q01DX001 (ip), vehicle: saline with Tween-80 92 % of control | endpoint: mean survival time, dose: 6.25 mg/kg/injection, schedule: Q01DX009 (ip), vehicle: saline with Tween-80 86 % of control and 89 % of control | endpoint: mean survival time, dose: 6.25 mg/kg/injection, schedule: Q04DX002 (ip), vehicle: saline with Tween-80 91 % of control and 97 % of control | endpoint: mean survival time, dose: 6.25 mg/kg/injection, schedule: Q04DX003 (ip), vehicle: saline with Tween-80 89 % of control | endpoint: mean survival time, dose: 12.5 mg/kg/injection, schedule: Q01DX001 (ip), vehicle: saline with Tween-80 93 % of control | [7] 86 % of control | endpoint: mean survival time, dose: 12.5 mg/kg/injection, schedule: Q04DX002 (ip), vehicle: saline with Tween-80 91 % of control | [8] 90 % of control | [9] 91 % of control | [1] 88 % of control | [4] 88 % of control

Cc1ccc(S(=O)(=O)NC(=O)C(=[N+]=[N-])c2ccc([N+](=O)[O-])cc2)cc1
inactive: endpoint: median survival time, dose: 25.0 mg/kg/injection, schedule: Q04DX002 (ip), vehicle: saline with Tween-80 100 % of control | endpoint: median survival time, dose: 50.0 mg/kg/injection, schedule: Q04DX002 (ip), vehicle: saline with Tween-80 90 % of control | endpoint: median survival time, dose: 100.0 mg/kg/injection, schedule: Q04DX002 (ip), vehicle: saline with Tween-80 90 % of control | endpoint: median survival time, dose: 200.0 mg/kg/injection, schedule: Q04DX002 (ip), vehicle: saline with Tween-80 90 % of control

N#CCCC#N (tested in a mixture with another compound)
inactive: [9] 96 % of control and 100 % of control | [2] 96 % of control and 107 % of control | [3] 100 % of control and 96 % of control | [4] 92 % of control and 100 % of control

COc1cc(C=Nc2cc(Cl)ccc2-n2ccnc2C)ccc1N(CCCl)CCCl
inactive: endpoint: mean survival time, dose: 12.5 mg/kg/injection, schedule: Q04DX003 (ip), vehicle: saline with Tween-80 117 % of control | [8] 113 % of control | endpoint: mean survival time, dose: 50.0 mg/kg/injection, schedule: Q04DX003 (ip), vehicle: saline with Tween-80 118 % of control | endpoint: mean survival time, dose: 200.0 mg/kg/injection, schedule: Q04DX003 (ip), vehicle: saline with Tween-80 115 % of control | endpoint: mean survival time, dose: 400.0 mg/kg/injection, schedule: Q04DX003 (ip), vehicle: saline with Tween-80 89 % of control

O=c1nc(N2CCCCC2)ccn1C1OC(CO)C(O)C1O (stereo unspecified)
inactive: endpoint: median survival time, dose: 12.5 mg/kg/injection, schedule: Q01DX005 (ip), vehicle: water 98 % of control | endpoint: median survival time, dose: 25.0 mg/kg/injection, schedule: Q01DX005 (ip), vehicle: water 106 % of control | endpoint: median survival time, dose: 50.0 mg/kg/injection, schedule: Q01DX005 (ip), vehicle: water 106 % of control | endpoint: median survival time, dose: 100.0 mg/kg/injection, schedule: Q01DX005 (ip), vehicle: water 112 % of control | endpoint: median survival time, dose: 200.0 mg/kg/injection, schedule: Q01DX005 (ip), vehicle: water 104 % of control

C=CCN1C(=O)C=CC1=O
inactive: endpoint: mean survival time, dose: 25.0 mg/kg/injection, schedule: Q04DX002 (ip), vehicle: saline with Tween-80 95 % of control | [9] 91 % of control | [2] 88 % of control

CC(=O)Nc1ccc(-c2c(NCCO)ncc3ccccc23)cc1
inactive: endpoint: mean survival time, dose: 25.0 mg/kg/injection, schedule: Q04DX003 (ip), vehicle: other 104 % of control | endpoint: mean survival time, dose: 50.0 mg/kg/injection, schedule: Q04DX003 (ip), vehicle: other 98 % of control | endpoint: mean survival time, dose: 100.0 mg/kg/injection, schedule: Q04DX003 (ip), vehicle: other 98 % of control | endpoint: mean survival time, dose: 200.0 mg/kg/injection, schedule: Q04DX003 (ip), vehicle: other 104 % of control

CN(CC#N)N=Nc1ccc(C(N)=O)cc1
inactive: endpoint: mean survival time, dose: 4.68 mg/kg/injection, schedule: Q01DX009 (ip), vehicle: Klucel (hydroxypropylcellulose) (HPC) 96 % of control and 98 % of control | endpoint: mean survival time, dose: 9.37 mg/kg/injection, schedule: Q01DX009 (ip), vehicle: Klucel (hydroxypropylcellulose) (HPC) 102 % of control and 104 % of control | endpoint: mean survival time, dose: 18.75 mg/kg/injection, schedule: Q01DX009 (ip), vehicle: Klucel (hydroxypropylcellulose) (HPC) 95 % of control and 98 % of control | endpoint: mean survival time, dose: 37.5 mg/kg/injection, schedule: Q01DX009 (ip), vehicle: Klucel (hydroxypropylcellulose) (HPC) 102 % of control and 107 % of control | endpoint: mean survival time, dose: 75.0 mg/kg/injection, schedule: Q01DX009 (ip), vehicle: Klucel (hydroxypropylcellulose) (HPC) 118 % of control
